What was measured:
[1] = timolol drug release from ocular device in Unisol 4 buffer, UV spectroscopy; type: physicochemical; settings: Example 11 polymer matrix with dissolved timolol free base; release study 90 days, 37° C., Unisol 4 buffer (FIG. 16)
Method: The following details the method utilized to monitor timolol drug release from an ocular device of this example. Solutions of timolol maleate, in a concentration range of 5 ppm to 1,000 ppm, were prepared in Unisol® 4 buffer (Unisol® 4 is a preservative-free pH-balanced saline solution manufactured by Alcon Laboratories). A UV scanning spectrophotometer was utilized to generate a calibration curve of peak absorbance (λmax=294 nm) versus concentration, in gm/100 ml, of timolol maleate. A calibration curve for timolol free base was then generated. A device weighing between 100 and 150 mg was placed in a 4 ml vial. To the vial was added 2.0 ml of Unisol® 4 buffer. After 24 hours at 37° C., the sample was removed and placed in another 4 ml vial and covered with 2.0 ml of fresh Unisol® 4 buffer. The 24-hour release vial was capped, labeled and held for analysis. This procedure was repeated four more times to obtain 1-, 2-, 3-, 4- and 5-day release data. The sampling interval was then expanded to every 3 to 5 days and so on. The release study was carried out for a total of 90 days. The drug release samples were analyzed by UV spectroscopy and absorbance readings converted to weight of drug via the calibration curve. A plot of cumulative weight, in micrograms, of drug released versus time was generated.

[2] = ciprofloxacin drug release from ocular device in Purilens Plus buffer, UV spectroscopy; type: physicochemical
Method: The following details the method utilized to monitor ciprofloxacin drug release from an ocular device of this example. Solutions of ciprofloxacin, in a concentration range of 5 ppm to 1,000 ppm, were prepared in Purilens Plus buffer (Purilens Plus is a preservative-free pH-balanced saline solution manufactured by The Lifestyle Company). A UV scanning spectrophotometer was utilized to generate a calibration curve of peak absorbance (λmax=272 nm) versus concentration, in gm/100 ml, of ciprofloxacin.
A device from this example weighing between 100 and 150 mg was placed in a 4 ml vial. To the vial was added 3.0 ml of Purilens Plus buffer. After 24 hours at 37° C., the sample was removed and placed in another 4 ml vial and covered with 3.0 ml of fresh Purilens Plus buffer. The 24-hour release vial was capped, labeled and held for analysis. This procedure was repeated four more times to obtain 1-, 2-, 3-, 4- and 5-day release data. The sampling interval was then expanded to every 3 to 5 days and so on. The release study was carried out for a total of 60 days.
The drug release samples were analyzed by UV spectroscopy and absorbance readings converted to weight of drug via the calibration curve.

amount of ciprofloxacin released ([2]; 60 days release study, 37° C., Purilens Plus buffer, Example 12 hydrogel device, initial loading about 8.67 mg) [mg] | ciprofloxacin released, share of initial loading ([2]; in the 60 days, 4.74 mg of about 8.67 mg loading) [%] | SMILES | timolol release from device [1]
 |  | CC(C)(C)NC[C@H](O)COc1nsnc1N1CCOCC1 [timolol] | releases timolol in a controlled manner over several months
4.74 | 55 | O=C(O)c1cn(C2CC2)c2cc(N3CCNCC3)c(F)cc2c1=O [ciprofloxacin] | 

From patent publication US20100233241A1, “OPHTHALMIC DRUG DELIVERY SYSTEM AND APPLICATIONS” (VISTA SCIENTIFIC LLC, priority 2009, published 2010)
